Source: the supplement of paper PMC10307832

How the values were obtained:
Assay in all cases: relative viability (nuclei count vs DMSO), 5 days (fraction); higher = more cells survive
NCI-H1648 = tested on: NCI-H1648
Procedure, shortened: (§1)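 Lung cancer cell lines, seeded in 1536-well plates, were treated the following day by pin tool with a single drug or with five library-drug doses (not always all listed) in √10 steps on top of a fixed anchor-drug dose. Cells were fixed and nuclei stained in one step after 5 days, and nuclei were counted. Relative viability is the nuclei count for treated wells divided by that for vehicle wells, reported as medians of duplicate plates.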

RERF-LC-KJ = tested on: RERF-LC-KJ
Procedure, shortened: as §1

IA-LM = tested on: IA-LM
Procedure, shortened: as §1

NCI-H520 = tested on: NCI-H520
Procedure, shortened: as §1

NCI-H522 = tested on: NCI-H522
Procedure, shortened: as §1

NCI-H1651 = tested on: NCI-H1651
Procedure, shortened: as §1

O=C(O)c1ccc(-c2c[nH]c3ncc(-c4ccccc4)cc23)cc1C1CCCC1 + O=C(CCCCCCC(=O)Nc1ccccc1)NO [Vorinostat] (partner 1 µM)
relative viability (NCI-H1648; first compound 0.04 µM): 0.648
relative viability (NCI-H1648; first compound 0.1265 µM): 0.581
relative viability (NCI-H1648; first compound 0.4 µM): 0.331
relative viability (RERF-LC-KJ; first compound 0.04 µM): 0.714
relative viability (RERF-LC-KJ; first compound 0.1265 µM): 0.74
relative viability (RERF-LC-KJ; first compound 0.4 µM): 0.724
relative viability (RERF-LC-KJ; first compound 1.265 µM): 0.574
relative viability (IA-LM; first compound 0.04 µM): 0.976
relative viability (IA-LM; first compound 0.1265 µM): 1.07
relative viability (IA-LM; first compound 0.4 µM): 1.13
relative viability (IA-LM; first compound 1.265 µM): 1.03
relative viability (NCI-H520; first compound 0.04 µM): 0.643
relative viability (NCI-H520; first compound 0.1265 µM): 0.816
relative viability (NCI-H520; first compound 0.4 µM): 0.71
relative viability (NCI-H520; first compound 1.265 µM): 0.484
relative viability (NCI-H522; first compound 0.04 µM): 0.932
relative viability (NCI-H522; first compound 0.1265 µM): 0.984
relative viability (NCI-H522; first compound 0.4 µM): 0.843
relative viability (NCI-H522; first compound 1.265 µM): 1.11
relative viability (NCI-H1651; first compound 0.04 µM): 0.349
relative viability (NCI-H1651; first compound 0.1265 µM): 0.596
relative viability (NCI-H1651; first compound 0.4 µM): 0.62
relative viability (NCI-H1651; first compound 1.265 µM): 0.462

NC(=O)Nc1cc(-c2cccc(F)c2)sc1C(=O)N[C@H]1CCCNC1 [AZD7762] + CC(=O)Nc1cccc(-n2c(=O)n(C3CC3)c(=O)c3c(Nc4ccc(I)cc4F)n(C)c(=O)c(C)c32)c1 [Trametinib] (partner 0.02 µM)
relative viability (NCI-H1648; first compound 0.01 µM): 0.506
relative viability (NCI-H1648; first compound 0.03162 µM): 0.409
relative viability (NCI-H1648; first compound 0.1 µM): 0.513
relative viability (NCI-H1648; first compound 0.3162 µM): 0.446
relative viability (NCI-H1648; first compound 1 µM): 0.514
relative viability (RERF-LC-KJ; first compound 0.01 µM): 0.878
relative viability (RERF-LC-KJ; first compound 0.03162 µM): 0.888
relative viability (RERF-LC-KJ; first compound 0.1 µM): 0.996
relative viability (RERF-LC-KJ; first compound 0.3162 µM): 0.874
relative viability (RERF-LC-KJ; first compound 1 µM): 0.693
relative viability (NCI-H520; first compound 0.01 µM): 0.713
relative viability (NCI-H520; first compound 0.03162 µM): 0.702
relative viability (NCI-H520; first compound 0.1 µM): 0.653
relative viability (NCI-H520; first compound 0.3162 µM): 0.484
relative viability (NCI-H520; first compound 1 µM): 0.194
relative viability (NCI-H522; first compound 0.01 µM): 0.666
relative viability (NCI-H522; first compound 0.03162 µM): 0.822
relative viability (NCI-H522; first compound 0.1 µM): 0.737
relative viability (NCI-H522; first compound 0.3162 µM): 0.812
relative viability (NCI-H522; first compound 1 µM): 0.791
relative viability (NCI-H1651; first compound 0.01 µM): 0.882
relative viability (NCI-H1651; first compound 0.03162 µM): 0.852
relative viability (NCI-H1651; first compound 0.1 µM): 0.871
relative viability (NCI-H1651; first compound 0.3162 µM): 0.873
relative viability (NCI-H1651; first compound 1 µM): 0.766

NC(=O)Nc1cc(-c2cccc(F)c2)sc1C(=O)N[C@H]1CCCNC1 [AZD7762] + CC(=O)c1c(C)c2cnc(Nc3ccc(N4CCNCC4)cn3)nc2n(C2CCCC2)c1=O [Palbociclib] (partner 0.5 µM)
relative viability (NCI-H1648; first compound 0.01 µM): 0.394
relative viability (NCI-H1648; first compound 0.03162 µM): 0.245
relative viability (NCI-H1648; first compound 0.1 µM): 0.277
relative viability (NCI-H1648; first compound 0.3162 µM): 0.27
relative viability (NCI-H1648; first compound 1 µM): 0.283
relative viability (RERF-LC-KJ; first compound 0.01 µM): 1.09
relative viability (RERF-LC-KJ; first compound 0.03162 µM): 1.07
relative viability (RERF-LC-KJ; first compound 0.1 µM): 1.06
relative viability (RERF-LC-KJ; first compound 0.3162 µM): 1.01
relative viability (RERF-LC-KJ; first compound 1 µM): 0.965
relative viability (NCI-H520; first compound 0.01 µM): 0.244
relative viability (NCI-H520; first compound 0.03162 µM): 0.255
relative viability (NCI-H520; first compound 0.1 µM): 0.189
relative viability (NCI-H520; first compound 0.3162 µM): 0.232
relative viability (NCI-H520; first compound 1 µM): 0.189
relative viability (NCI-H522; first compound 0.01 µM): 1.07
relative viability (NCI-H522; first compound 0.03162 µM): 0.987
relative viability (NCI-H522; first compound 0.1 µM): 0.999
relative viability (NCI-H522; first compound 0.3162 µM): 1.09
relative viability (NCI-H522; first compound 1 µM): 1
relative viability (NCI-H1651; first compound 0.01 µM): 0.574
relative viability (NCI-H1651; first compound 0.03162 µM): 0.525
relative viability (NCI-H1651; first compound 0.1 µM): 0.556
relative viability (NCI-H1651; first compound 0.3162 µM): 0.558
relative viability (NCI-H1651; first compound 1 µM): 0.501

NC(=O)Nc1cc(-c2cccc(F)c2)sc1C(=O)N[C@H]1CCCNC1 [AZD7762] + Nc1nc2[nH]cc(CCc3ccc(C(=O)N[C@@H](CCC(=O)O)C(=O)O)cc3)c2c(=O)[nH]1 [Pemetrexed] (partner 0.2 µM)
relative viability (NCI-H1648; first compound 0.01 µM): 0.644
relative viability (NCI-H1648; first compound 0.03162 µM): 0.646
relative viability (NCI-H1648; first compound 0.1 µM): 0.704
relative viability (NCI-H1648; first compound 0.3162 µM): 0.553
relative viability (NCI-H1648; first compound 1 µM): 0.631
relative viability (RERF-LC-KJ; first compound 0.01 µM): 0.48
relative viability (RERF-LC-KJ; first compound 0.03162 µM): 0.461
relative viability (RERF-LC-KJ; first compound 0.1 µM): 0.441
relative viability (RERF-LC-KJ; first compound 0.3162 µM): 0.399
relative viability (RERF-LC-KJ; first compound 1 µM): 0.392
relative viability (NCI-H520; first compound 0.01 µM): 0.761
relative viability (NCI-H520; first compound 0.03162 µM): 0.458
relative viability (NCI-H520; first compound 0.1 µM): 0.421
relative viability (NCI-H520; first compound 0.3162 µM): 0.175
relative viability (NCI-H520; first compound 1 µM): 0.17
relative viability (NCI-H522; first compound 0.01 µM): 1.03
relative viability (NCI-H522; first compound 0.03162 µM): 1.05
relative viability (NCI-H522; first compound 0.1 µM): 0.862
relative viability (NCI-H522; first compound 0.3162 µM): 0.943
relative viability (NCI-H522; first compound 1 µM): 0.791
relative viability (NCI-H1651; first compound 0.01 µM): 0.624
relative viability (NCI-H1651; first compound 0.03162 µM): 0.688
relative viability (NCI-H1651; first compound 0.1 µM): 0.558
relative viability (NCI-H1651; first compound 0.3162 µM): 0.385
relative viability (NCI-H1651; first compound 1 µM): 0.259
